Data as given in patent publication US10477864B2, “Microbiocidal quinoline (thio)carboxamide derivatives” (priority 2016, dated 2019).

Columns and labels:
[1] = system: Botryotinia fuckeliana (Botrytis cinerea); experiment: Botryotinia fuckeliana (Botrytis cinerea) / liquid culture (gray mould); assay type: cell-based; details: 72 h, read-out: control of Botryotinia fuckeliana
Fusarium culmorum [2] = experiment: microbe, parasite or virus in culture; assay type: cell-based; details: read-out: control of Fusarium culmorum
Fusarium culmorum [3] = experiment: whole plant or invertebrate; assay type: in vivo; details: in Triticum aestivum, read-out: control of Fusarium culmorum
[4] = system: Glomerella lagenarium (Colletotrichum lagenarium); experiment: Glomerella lagenarium (Colletotrichum lagenarium) / liquid culture (anthracnose); assay type: cell-based; details: Colletotrichum orbiculare; read-out: control of Glomerella lagenarium

Row | Compound | melting point | inhibition of growth at 200 ppm [1] | inhibition of growth at 200 ppm (Fusarium culmorum [2]) | pest or weed control at 200 ppm (Fusarium culmorum [3]) | inhibition of growth at 200 ppm [4]
1 | CC(C)CC(C)(Cc1ccccc1)NC(=O)c1cnc2c(C#N)cccc2c1 (centres unmarked) | 160 to 162 °C |  |  |  | 
2 | CC(C)(Cc1ccccc1OC(F)(F)F)NC(=O)c1cnc2ccccc2c1 [Compound E-3, N-[1,1-dimethyl-2-[2-(trifluoromethoxy)phenyl]ethyl]quinoline-3-carboxamide] | 145 to 149 °C | ≥ 80% |  |  | 
3 | CC(C#N)(Cc1ccccc1F)NC(=O)c1cnc2ccccc2c1 (centres unmarked) [Compound E-4, N-[1-cyano-2-(2-fluorophenyl)-1-methyl-ethyl]quinoline-3-carboxamide] | 134 to 139 °C |  | ≥ 80% |  | 
4 | CC(C#N)(Cc1ccccc1Cl)NC(=O)c1cnc2c(F)cccc2c1 (centres unmarked) [Compound E-18, N-[2-(2-chlorophenyl)-1-cyano-1-methyl-ethyl]-8-fluoro-quinoline-3-carboxamide] | 198 to 203 °C | ≥ 80% | ≥ 80% |  | 
5 | COc1ccc2ncc(C(=O)NC(C)(Cc3ccccc3)CC(C)C)cc2c1 (centres unmarked) [Compound E-63, N-(1-benzyl-1,3-dimethyl-butyl)-6-methoxy-quinoline-3-carboxamide] | 102 to 105 °C | ≥ 80% |  |  | 
6 | CC(C)CC(C)(Cc1ccccc1)NC(=O)c1cnc2cccc(Cl)c2c1 (centres unmarked) [Compound E-64, N-(1-benzyl-1,3-dimethyl-butyl)-5-chloro-quinoline-3-carboxamide] | 50 to 60 °C | ≥ 80% | ≥ 80% |  | 
7 | CC(C)CC(C)(Cc1ccccc1)NC(=O)c1cnc2cc(C#N)ccc2c1 (centres unmarked) [Compound E-67, N-(1-benzyl-1,3-dimethyl-butyl)-7-cyano-quinoline-3-carboxamide] | 170 to 172 °C | ≥ 80% | ≥ 80% | ≥ 80% | 
8 | CC(Cc1ccccc1)(CC(F)(F)F)NC(=O)c1cnc2cccc(Cl)c2c1 (centres unmarked) [Compound E-68, N-(1-benzyl-3,3,3-trifluoro-1-methyl-propyl)-5-chloro-quinoline-3-carboxamide] | 85 to 88 °C |  | ≥ 80% |  | 
9 | CC(Cc1ccccc1)(CC(F)(F)F)NC(=O)c1cnc2cc(C#N)ccc2c1 (centres unmarked) [Compound E-70, N-(1-benzyl-3,3,3-trifluoro-1-methyl-propyl)-7-cyano-quinoline-3-carboxamide] | 172 to 174 °C | ≥ 80% | ≥ 80% | ≥ 80% | 
10 | Cc1cccc2ncc(C(=O)NC(C)(Cc3ccccc3)CC(C)C)cc12 (centres unmarked) [Compound E-85, N-(1-benzyl-1,3-dimethyl-butyl)-5-methyl-quinoline-3-carboxamide] | 79 to 81 °C | ≥ 80% | ≥ 80% | ≥ 80% | 
11 | CC(C)CC(C)(Cc1ccccc1)NC(=O)c1cnc2cccc(O)c2c1 (centres unmarked) [Compound E-87, N-(1-benzyl-1,3-dimethyl-butyl)-5-hydroxy-quinoline-3-carboxamide] | 90 to 95 °C | ≥ 80% | ≥ 80% |  | ≥ 80%
12 | CC(Cc1ccccc1)(CC(F)(F)F)NC(=O)c1cnc2c(F)cccc2c1Cl (centres unmarked) [Compound E-96, N-(1-benzyl-3,3,3-trifluoro-1-methyl-propyl)-4-chloro-8-fluoro-quinoline-3-carboxamide] |  | ≥ 80% | ≥ 80% | ≥ 80% | ≥ 80%
13 | Cc1c(C(=O)NC(C)(Cc2ccccc2)CC(F)(F)F)cnc2c(C#N)cccc12 (centres unmarked) [Compound E-105, N-(1-benzyl-3,3,3-trifluoro-1-methyl-propyl)-8-cyano-4-methyl-quinoline-3-carboxamide] | 194 to 197 °C |  | ≥ 80% | ≥ 80% | 
14 | Cc1c(C(=O)NC(C)(Cc2ccccc2)CC(C)C)cnc2c(Cl)cccc12 (centres unmarked) [Compound E-107, N-(1-benzyl-1,3-dimethyl-butyl)-8-chloro-4-methyl-quinoline-3-carboxamide] | 65 to 70 °C | ≥ 80% | ≥ 80% | ≥ 80% | 
15 | Cc1nc2c(Cl)cccc2cc1C(=O)NC(C)(Cc1ccccc1)CC(F)(F)F (centres unmarked) [Compound E-110, N-(1-benzyl-3,3,3-trifluoro-1-methyl-propyl)-8-chloro-2-methyl-quinoline-3-carboxamide] | 176 to 179 °C | ≥ 80% | ≥ 80% |  | 
16 | CC(Cc1ccccc1)(CC1CCC1)NC(=O)c1cnc2ccccc2c1 (centres unmarked) [Compound E-111, N-(1-benzyl-2-cyclobutyl-1-methyl-ethyl)quinoline-3-carboxamide] | 88 to 90 °C | ≥ 80% | ≥ 80% |  | ≥ 80%
17 | CC(Cc1ccccc1)(CC(F)(F)F)NC(=S)c1cnc2c(F)cccc2c1 (centres unmarked) [Compound E-115, N-(1-benzyl-3,3,3-trifluoro-1-methyl-propyl)-8-fluoro-quinoline-3-carbothioamide] | 173 to 175 °C | ≥ 80% | ≥ 80% |  | ≥ 80%
18 | CC(C)CC(C)(Cc1ccccc1)NC(=O)c1cc2cccc(F)c2nc1F (centres unmarked) [Compound E-125, N-(1-benzyl-1,3-dimethyl-butyl)-2,8-difluoro-quinoline-3-carboxamide] |  | ≥ 80% | ≥ 80% | ≥ 80% | ≥ 80%
19 | C[C@](Cc1ccccc1)(CC(F)(F)F)NC(=O)c1cnc2c(F)cccc2c1 [Compound F-11, N-[(1S)-1-benzyl-3,3,3-trifluoro-1-methyl-propyl]-8-fluoro-quinoline-3-carboxamide] |  | ≥ 80% | ≥ 80% | ≥ 80% | ≥ 80%
20 | C[C@@](Cc1ccccc1)(CC(F)(F)F)NC(=O)c1cnc2c(F)cccc2c1 [Compound F-12, N-[(1R)-1-benzyl-3,3,3-trifluoro-1-methyl-propyl]-8-fluoro-quinoline-3-carboxamide] |  | ≥ 80% | ≥ 80% | ≥ 80% | ≥ 80%
21 | CC(C)C[C@](C)(Cc1ccccc1)NC(=O)c1cnc2cc(F)ccc2c1 [Compound F-13, N-[(1R)-1-benzyl-1,3-dimethyl-butyl]-7-fluoro-quinoline-3-carboxamide] |  | ≥ 80% | ≥ 80% | ≥ 80% | ≥ 80%
22 | CC(C)C[C@@](C)(Cc1ccccc1)NC(=O)c1cnc2cc(F)ccc2c1 [Compound F-14, N-[(1S)-1-benzyl-1,3-dimethyl-butyl]-7-fluoro-quinoline-3-carboxamide] |  | ≥ 80% | ≥ 80% | ≥ 80% | ≥ 80%
23 | C=C(C)C[C@@](C)(Cc1ccccc1)NC(=O)c1cnc2c(F)c(F)ccc2c1 [Compound F-19, N-[(1S)-1-benzyl-1,3-dimethyl-but-3-enyl]-7,8-difluoro-quinoline-3-carboxamide] |  | ≥ 80% | ≥ 80% | ≥ 80% | ≥ 80%
24 | CC(C)C[C@](C)(Cc1ccccc1)NC(=O)c1cnc2c(F)c(F)ccc2c1 [Compound F-21, N-[(1R)-1-benzyl-1,3-dimethyl-butyl]-7,8-difluoro-quinoline-3-carboxamide] |  | ≥ 80% | ≥ 80% | ≥ 80% | ≥ 80%
25 | Cc1cccc2cc(C(=O)N[C@](C)(Cc3ccccc3)CC(F)(F)F)cnc12 [Compound F-28, N-[(1R)-1-benzyl-3,3,3-trifluoro-1-methyl-propyl]-8-methyl-quinoline-3-carboxamide] |  | ≥ 80% | ≥ 80% | ≥ 80% | ≥ 80%
26 | C[C@@](Cc1ccccc1)(CC(F)F)NC(=O)c1cnc2c(F)cccc2c1 [Compound F-31, N-[(1R)-1-benzyl-3,3-difluoro-1-methyl-propyl]-8-fluoro-quinoline-3-carboxamide] |  | ≥ 80% | ≥ 80% | ≥ 80% | ≥ 80%
27 | Cc1nc2c(F)cccc2cc1C(=O)N[C@@](C)(Cc1ccccc1)CC(F)(F)F [Compound F-33, N-[(1S)-1-benzyl-3,3,3-trifluoro-1-methyl-propyl]-8-fluoro-2-methyl-quinoline-3-carboxamide] |  | ≥ 80% | ≥ 80% | ≥ 80% | ≥ 80%
28 | C[C@](Cc1ccccc1)(CC(F)(F)F)NC(=O)c1cnc2c(Cl)cccc2c1 [Compound F-35, N-[(1S)-1-benzyl-3,3,3-trifluoro-1-methyl-propyl]-8-chloro-quinoline-3-carboxamide] |  | ≥ 80% | ≥ 80% | ≥ 80% | ≥ 80%
29 | C[C@@](Cc1ccccc1)(CC(F)(F)F)NC(=O)c1cnc2c(Cl)cccc2c1 [Compound F-36, N-[(1R)-1-benzyl-3,3,3-trifluoro-1-methyl-propyl]-8-chloro-quinoline-3-carboxamide] |  | ≥ 80% | ≥ 80% | ≥ 80% | ≥ 80%
